Data taken from US20140100165A1, “PREVENTION OF KIDNEY INJURY OR DISEASE” (University of Florida Research Foundation, priority 2012, published 2014).
Where two headings read alike, the source gives them in different places.

How the values were obtained:
[1] = tested on: Acute Kidney Injury (AKI) in patients undergoing cardiac surgery; assay: Example 1: prevention of AKI by different dosage regimes of AP214 in patients undergoing cardiac surgery; format: in vivo, human
Procedure: Each of 12 patients undergoing cardiac surgery (the AP214 group) was dosed with 600 μg/kg AP214: 200 μg/kg at skin incision, 200 μg/kg at cross clamp release, and 200 μg/kg 6-hour after cross clamp release. Each dosage was provided over a period of 10 minutes. The placebo group included 13 patients undergoing cardiac surgery without AP214 infusion.
Objectives • trial objective was to assess the effect of AP214 on • 1) changes in serum creatinine, cystatin-C and carbamade, • 2) on eGFR and • 3) on the development of post-surgical acute kidney injury (AKI) • AKI also assessed (post-hoc analysis) by AKIN and RIFLE
Three different definitions of AKI were tested: • 1) 3 patients in the AP214 group developed AKI, in contrast to 7 patients in the placebo group who developed AKI. AKI is defined as in the CS005 protocol: • An absolute increase in serum creatinine of more than or equal to 26.4 μmol/l (0.3 mg/dl) or • A percentage increase in serum creatinine of more than or equal to 50% (1.5-fold from baseline) from Day 0-14 and/or • Urine output less than 0.5 mL/kg per hour for more than 6 hours. • 2) AKI according to the AKIN score as presented in FIG. 3a, and • 3) AKI according to the RIFLE score as presented in FIG. 3b.

[2] = tested on: Acute Kidney Injury (AKI) in patients undergoing cardiac surgery on cardiopulmonary bypass; format: in vivo; conditions: for kidney function as measured by estimated GFR: seven day post-operative period
Source text: The CS007 trial was designed to study both short and long term efficacy signals (FIG. 5).
Primary Aims • Safety: Safety and tolerability vs. placebo • Efficacy: Max post-operative change in absolute values of SCr compared to baseline within the first 7 days after surgery or until discharge from hospital, whichever comes first vs. placebo.
Secondary aims • Composite: • Assess the proportion of patients reaching the composite endpoint of death, need for RRT or a 25% reduction in renal function over a 90 day post-operative period vs. placebo. • AKIN: Assess post-operative incidence of AKI within 48 hours post-surgery • RIFLE: Assess post-operative incidence of AKI within first 7 days post-surgery. • SCr: Changes between surgery and postoperative day 7. • GFR: Changes at day 90 compared to baseline. • eGFR: Changes between surgery and postoperative day 7
Each dosage was provided over a period of 10 minutes. As used throughout this disclosure and unless specified otherwise, “μg/kg” refers to […] AP214 per kg bodyweight of the patient being treated.
Moreover, in the same double-blind study described in this Example, patients undergoing cardiac surgery on cardiopulmonary bypass (CPB) were randomized to placebo (PBO; n=26), AP214 given at either 600 μg/kg (n=25), or 800 μg/kg (n=26), divided into 3 bolus infusions at the predetermined intervals as described above. AKI was determined according to AKIN and RIFLE scores.

[3] = Example 3: evaluation of rate of infusion of AP214 (adverse events, tolerability); format: in vivo, human
Procedure: To establish a suitable rate of infusion of AP214 a set of patient trials were performed.
AP214 isotonic solution single ascending doses (25, 50 and 100 μg/kg) for intravenous infusion administered over 10 minutes, or placebo (saline infusion).
AP214 isotonic solution single doses (100 μg/kg over 1 minute; 100 μg/kg over 30 seconds; 200 μg/kg over 30 seconds) for intravenous infusion.

[4] = tested on: complete warm ischemia in the kidney; conditions: pigs; 200 μg/kg, 10 ml i.v. bolus during 1 minute, seven doses; cited from earlier work
[5] = 600 μg/kg bodyweight (3×200 μg/kg) i.v. over 10 minutes each, vs placebo
[6] = 600 μg/kg bodyweight, vs placebo

CSCC[C@H](NC(=O)[C@H](CO)NC(=O)[C@H](Cc1ccc(O)cc1)NC(=O)[C@H](CO)NC(=O)[C@H](CCCCN)NC(=O)[C@H](CCCCN)NC(=O)[C@H](CCCCN)NC(=O)[C@H](CCCCN)NC(=O)[C@H](CCCCN)NC(=O)[C@H](CCCCN)NC(C)=O)C(=O)N[C@@H](CCC(=O)O)C(=O)N[C@@H](Cc1c[nH]cn1)C(=O)N[C@@H](Cc1ccccc1)C(=O)N[C@@H](CCCNC(=N)N)C(=O)N[C@@H](Cc1c[nH]c2ccccc12)C(=O)NCC(=O)N[C@@H](CCCCN)C(=O)N1CCC[C@H]1C(=O)N[C@H](C(N)=O)C(C)C [AP214, Acetyl-Lysyl-L-lysyl-L-lysyl-L-lysyl-L-lysyl-L-lysyl-L-seryl-L-tyrosyl-L-seryl-L-methionyl-Lglutamyl-L-histidyl-L-phenylalanyl-L-arginyl-L-tryptophanyl-glycyl-L-lysyl-L-prolyl-L-valine amide]
prevention of AKI as compared to placebo ([1]; 150 μg/kg bodyweight (3×50 μg/kg), same dosing scheme): showed no prevention of AKI | patients who developed AKI (AKI as defined in the CS005 protocol) ([1]; 600 μg/kg (3×200 μg/kg), AP214 group of 12 patients, 7 of 13 in placebo group): 3 patients | development of AKI according to the RIFLE and AKIN scores ([1]; 600 μg/kg bodyweight (3×200 μg/kg)): demonstrated prevention in the development of AKI | decrease in eGFR [1, 5]: prevented a decrease in eGFR | increase in serum creatinine [1, 5]: prevented | increase in carbamide [1, 6]: prevented | increase in cystatin C [1, 6]: prevented an increase in cystatin C | population distribution of extreme serum creatinine values (highest quartile) ([2]; 600 μg/kg): showed a reduction in serum creatinine values at the highest quartile | kidney function as measured by estimated GFR ([2]; 600 μg/kg): increased kidney function | population distribution of extreme serum creatinine values (highest quartile) ([2]; 800 μg/kg): showed a reduction in serum creatinine values at the highest quartile | degree of acute kidney injury compared to placebo ([2]; 800 μg/kg, Day 0-7): displayed lesser degrees of acute kidney injury | incidence of AKI compared with PBO, by surgery type ([2]; 800 μg/kg, combined CABG and valve surgery, multiple valve surgery, chronic kidney disease and CABG (or valve surgery)): numerically lower incidence of AKI | kidney function as measured by estimated GFR ([2]; 800 μg/kg): increased kidney function | adverse events ([3]; 100 μg/kg over 10 minutes i.v. (slower infusion rate)): did not show these adverse effects | adverse events versus 100 μg/kg over 30 sec and 1 minute ([3]; 200 μg/kg over 30 seconds i.v.): more adverse events | subjects with erythema ([3]; Group 2 (n=6), short infusion times): 6 subjects | adverse events ([3]; Group 2 (n=6): 100 μg/kg over 1 minute, 100 μg/kg over 30 seconds, 200 μg/kg over 30 seconds, i.v.): A large number of adverse events were reported | renoprotective effect [4]: provides a renoprotective effect
